The values below come from patent US20230248670A1, “APPLICATION OF PREPARATION FOR INHIBITING CAMK2G EXPRESSION IN PREPARATION OF MEDICINE FOR TREATING PSORIASIS” (priority 2022, published 2023).

Each structure is given as a SMILES string.

Assay [1] relates to PMA-activated HL-60 cells. The assay is described as follows: NETs protein release in PMA-activated HL-60 cells. It counts as cell-based. From the text: The existing literature discloses that although T cells producing IL-17 have long been the mainstream of psoriasis immunology research, neutrophils, as the largest number of cells in the innate immune system, have attracted much attention in the occurrence and development of psoriasis. Activated neutrophils produce enhanced respiratory burst, accompanied by the production of reactive oxygen species (ROS), ultimately leading to the development of NETosis. NETosis is a form of neutrophil death different from apoptosis and necrosis. NETosis is accompanied by the formation of NETs. NETs release proteases such as myeloperoxidase (MPO), neutrophil elastase (NE) and peptidyl arginine deiminase 4 (PAD4), which are involved in the hydrolysis and activation of inflammatory mediators and the formation of NETs of psoriasis autoantigens. HL60 is a bone marrow cell line with the potential to differentiate into neutrophils stimulated by dimethyl sulfoxide (DMSO). CAMK2γ is the member of CAMK family with the highest expression level and activity in HL-60 cells.
In the embodiment of the disclosure, in order to study whether CAMK2γ is involved in the formation of NETs in activated neutrophils, two kinds of CaMKII inhibitors, CaMKII-IN1 and KN93, are used.

Assay [2] has as its system IMQ-induced psoriasis mice. The assay is described as follows: IMQ-induced psoriasis mouse model with subcutaneous injection of NE, SAL or ICI. The format is in vivo. The conditions noted are these: for activation of p38 in IMQ-induced skin: SAL or ICI treatment, mouse skin; for IMQ-induced psoriasis-like phenotype (dorsal skin thickness, erythema, scaling) / proportion of IL-17A+ γδ T cells (γδ T-17 cells) in mouse skin: subcutaneous injection; for IMQ-induced psoriasis-like phenotype (dorsal skin thickness, erythema, scaling): IMQ-induced mice, vs control group; for proportion of IL-17A+ γδ T cells (γδ T-17 cells) in mouse skin: IMQ-induced mouse skin, flow cytometry. On the procedure:
In the embodiment of the disclosure, establishment steps of IMQ-induced Camk2g^-/- psoriasis mouse model include steps as follows. 7-week-old wild type mice (WT) (n = 5) or Camk2g^-/- mice (n = 5) are taken to shave back hair, and the exposed skin area is 2 centimeters (cm) × 2 cm, […] (mg) of IMQ cream or control agent Vaseline (VAS) are evenly applied to the exposed skin of mice for 4 consecutive days, psoriasis area severity index (PASI) score is performed every day, and the mice are sacrificed on the 5th day to take the skin, spleen and blood for testing.
In the embodiment of the disclosure, the skin tissue is fixed with 10% formalin, embedded in paraffin, cut into 4 micrometers (µm) sections for hematoxylin and eosin (H&E) staining.
In the embodiment of the disclosure, the inflammation scoring method of the mouse model is an objective scoring system developed on the basis of clinical PASI score. Scores of erythema, scaling and thickening ranged from 0 to 4:0: none; 1: mild, 2: moderate, 3: obvious, and 4: very significant. The degree of erythema is scored using a scoring scaling based on erythema intensity. A cumulative score (i.e., erythema + scaling + thickening) can be used as an indicator of the severity of inflammation (the cumulative score is in a range of 0-12).
In the embodiment of the disclosure, separation steps of skin immunocytes include steps as follows. the skin is fully chopped and then digested in digestive enzymes at 37° C. and 225 revolutions per minute (rpm) for 1.5 hours to thereby obtain an initial digestion solution. The digestive enzymes are formulated as follows: 1.2 grams (g) bovine serum albumin (BSA) (Biofoxx, 4240GR100), 0.12 g type I collagenase (Sigma, C0130-5G), 0.06 g type IV collagenase (Worthington, LS004189) and 0.06 g hyaluronidase (Sigma, H3506) -5G) are dissolved in 30 milliliters (mL) dulbecco’s modified eagle medium (DMEM) (HyClone, SH30022.01). 150 microliters (µL) of 1 microgram per milliliter (mg/mL) deoxyribonuclease (DNase) (Yuanye, S10073) is added in the initial digestion solution and the digestion is continued for 30 minutes to obtain a first cell suspension. After the digestion, the first cell suspension is filtered through a 70-µm filter. The filtered first cell suspension is centrifuged at 4° C. and 2000 rpm for 8 minutes, and first cell particles are collected after removing a first supernatant. The first cell particles are suspended in 6 mL of 40% lymphocyte isolation solution (5.4 mL Percoll (GE Healthcare, 17-0891-09) +520 µL Hank’s Solution (Beyotime, C0219) +44 µL 2×Hepes Buffer (Solarbio, H1080-100) +[…] phosphate-buffered saline (PBS)) of a centrifuge tube. Then, 6 mL of 80% lymphocyte isolation solution (5.4 mL Percoll+520 µL Hank’s Solution+44 µL 2×Hepes Buffer+1.491 mL PBS) is slowly added to the tube wall to obtain a first mixed solution, and the first mixed solution is clearly separated into two layers. The first mixed solution is centrifuged at 4° C. and 2000 rpm for 20 minutes, and the centrifugal lifting force is kept to a minimum. The liquid in the centrifuge tube after centrifugation can be divided into four layers. From top to bottom of the centrifuge tube, there are 40% lymphocyte isolation solution, lymphocytes, 80% lymphocyte isolation solution and cell fragments. Lymphocytes are carefully transferred into a new centrifuge tube and thoroughly washed with 10 mL PBS to obtain a second mixed solution. The second mixed solution is centrifuged at 4° C. and 2000 rpm for 8 minutes to obtain a second cell suspension, and second cell particles are collected after removing a second supernatant. Then, 1 µL of each cell membrane surface antibody is added to 50 µL of PBS, mixed with the second cell particles, and incubated at room temperature for 30 minutes in the dark. […]
In general terms: In flow cytometry, cells or beads pass a laser one at a time.

In the next assay the test system is Jurkat cells. The assay is described as follows: Proinflammatory cytokine production in PMA/ionomycin co-stimulated Jurkat cells. It counts as cell-based, human. The conditions noted are these: co-stimulation with PMA and ionomycin. The source says: In the embodiments of the disclosure, “Phorbol 12-myristate 13-acetate (PMA)” and “ionomycin (Ion)” are used to activate Jurkat cells, and only activated Jurkat cells can highly express inflammatory factors.
In the embodiment of the disclosure, in order to in order to study how ADRB2 regulates the inflammatory response of γδ T cells, Jurkat cells (a kind of immortal human T lymphocytes) are stimulated with ADRB2 agonist SAL and antagonist ICI 118551 respectively.

In another assay the test system is Jurkat T cells. The assay is described as follows: MAPK (p38, ERK, JNK) activation in PMA/ionomycin activated Jurkat T cells. The format is cell-based, human. The conditions noted are these: Jurkat T cells activated by PMA/ionomycin for 2 hours, treatment for 4 hours. From the text:
This is consistent with the existing literature that p38 phosphorylation promotes the proliferation of Th17 cells in autoimmune arthritis. P38 MAPK signaling pathway plays a role in the activation and differentiation of T cells in the peripheral blood immune system.

Another assay deals with SH-SY5Y cells. The assay is described as follows: 6-OHDA induced SH-SY5Y cell injury (qPCR, western blot). It counts as cell-based, human. From the text: In an embodiment of the disclosure, to further study whether CAMK2γ directly affects the expression of TH in sympathetic nerves, RNA interference (RNAi) method is used to knock down CAMK2G in human neuroblastoma cell (SH-SY5Y). SH-SY5Y is a poorly differentiated tumor cell with high similarity in morphology, physiology and biochemical function to dopaminergic neurons in real-time in vivo, and can constitutively express TH.
A general note: Real-time PCR tracks product formation cycle by cycle.

In the next assay the test system is IMQ-induced mice. The conditions noted are these: intraperitoneal injection; cited from earlier work.
Assay [3] concerns skin sympathetic nerves of IMQ-induced mice. The assay is described as follows: Local skin sympathectomy by intradermal 6-OHDA before IMQ treatment. The format is in vivo, mouse. On the procedure: In an embodiment of the disclosure, in order to observe the effect of local sympathectomy on psoriasis mice, mice are injected with 6-OHDA intradermally before IMQ treatment (FIG. 25).

In assay [4] the test system is γδ T cell deficient-mice (Tcrd^-/-). The assay is described as follows: SAL subcutaneous injection in γδ T cell deficient-mice (Tcrd-/-). The format is in vivo, mouse. The source says:
SAL has no effect on the ability of αβ T cells to produce IL-17 (FIG. 50). Combined with the previous results, NE in the skin mainly derives from the skin sympathetic nerves and mediates the release of IL-17 from γδ T cells instead of αβ T cells through the NE-ADRB2 signaling pathway.

For assay [5], the system named is IMQ-induced psoriasis mice. The assay is described as follows: IMQ-induced psoriasis mouse model with subcutaneous injection of NE, SAL or ICI. It counts as in vivo. The conditions noted are these: after injection of NE.
The mark [6] stands for this setting: intradermal 6-OHDA, sympathetic denervated skin.

For the compound `COc1ccc(S(=O)(=O)N(CCO)c2ccccc2CN(C)C/C=C/c2ccc(Cl)cc2)cc1` [KN93], the “release of MPO, elastase and PAD4” value in [1] is “inhibits the release of MPO, elastase and PAD4”.
With `Cc1ccc(OCC(O)C(C)NC(C)C)c2c1CCC2` (stereo not drawn) [ICI, ICI 118551], in assay [2], the “activation of p38 in IMQ-induced skin” value is reported as “showed inhibitory effect”; the “IMQ-induced psoriasis-like phenotype (dorsal skin thickness, erythema, scaling)” value is “psoriasis phenotype of mice injected with ICI is reduced”; the “proportion of IL-17A+ γδ T cells (γδ T-17 cells) in mouse skin” value (“proportion of IL-17A+ γδ T cells” for short) is “reduces a proportion of skin γδ T-17 cells”. Also, the “production of T-cell proinflammatory cytokines IL-17A, TNF-α and IL-22” value in the assay on Jurkat cells is “reduces the production of the T-cell proinflammatory cytokines”. In the assay with Jurkat T cells, the “activation of ERK and JNK” value was “does not affect the activation”; the p38 phosphorylation entry was “inhibited”.
Turning to `NCCc1cc(O)c(O)cc1O` [6-OHDA, 6-hydroxydopamine], in the assay with SH-SY5Y cells (qPCR), the CAMK2G expression entry is on record as “no significant effect on CAMK2G expression” and the “intracellular TH transcription level” value is listed as “decrease of intracellular TH transcription level”. Also, in the assay on SH-SY5Y cells (western blot), the “phosphorylation levels of other members of the CaMKII family” value was “may lead to increased phosphorylation levels of other members of the CaMKII family”; the “total protein level and pTH level of CAMK2γ” value was “reduces the total protein level and pTH level of CAMK2γ”. In the assay with IMQ-induced mice, the IMQ-induced ear swelling entry was “can reduce IMQ-induced ear swelling” and the “production of IL-17” value is listed as “does not affect the production of IL-17”. Besides, in assay [3] (intradermal 6-OHDA before IMQ, immunofluorescence and western blot), the “TH and pTH in skin” value was “significant reduction of TH and pTH”. For the same compound, the IMQ-induced psoriasis-like phenotype result in assay [3] (intradermal 6-OHDA, skin sympathetic denervation) is listed as “reduces IMQ-induced psoriasis-like phenotype in mice”. In assay [3] (setting [6]), the “IL-17A+ γδ T cells in skin” value is given as “IL-17A+ γδ T cells are reduced” and the NE in skin entry was “reduction of NE”.
Take `CC(C)Cn1cnc2c(N)nc3ccccc3c21` [IMQ, imiquimod]: in assay [2] (IMQ treatment), the “p38 phosphorylation in mouse skin” value is reported as “p38 phosphorylation is activated by IMQ” and the “proportion of β2-AR+ T cells in mouse skin” value is listed as “increases a proportion of β2-AR+ T cells in mouse skin”. Moreover, in assay [2] (IMQ treatment, western blot), the “TH phosphorylation in mouse skin” value was “significant upregulation of TH phosphorylation”.
Regarding `OCc1cc(C(O)CNCCCCCCOCCCCc2ccccc2)ccc1O` (stereo not drawn) [SAL, salmeterol xinafoate], in assay [2], the “activation of p38 in IMQ-induced skin” value was “enhanced the activation of p38”; the “IMQ-induced psoriasis-like phenotype (dorsal skin thickness, erythema, scaling)” value is “psoriasis phenotype of mice injected with SAL increased”; the “proportion of IL-17A+ γδ T cells” value is on record as “promotes IL-17A production by γδ T cells”. Also, the “production of T-cell proinflammatory cytokines IL-17A, TNF-α and IL-22” value in the assay with Jurkat cells is “increase the production of T-cell proinflammatory cytokines IL-17A, TNF-α and IL-22”. For the same compound, in assay [4], the “ability of αβ T cells to produce IL-17” value is reported as “no effect”; the “psoriasis phenotype and inflammatory infiltration” value was “promotion of psoriasis phenotype and inflammatory infiltration by SAL is counteracted by the lack of γδ T cells”. Also, the p38 phosphorylation entry in the assay with Jurkat T cells is “significantly increased”.
On to `NC[C@H](O)c1ccc(O)c(O)c1` [NE, norepinephrine], for which the “IL-17A+ γδ T cells in CAMK2G-deleted mice” value in assay [2] (NE administration, IMQ-induced Camk2g-/- mice) is given as “counteracts the decrease of IL-17A+ γδ T cells caused by CAMK2G deletion”. For the same compound, the “p38 phosphorylation in skin of Camk2g-/- mice” value in [2] (NE injection, compared to IMQ-treated WT mice) is “increases and restores p38 phosphorylation”. Also, in [2], the “IMQ-induced psoriasis-like phenotype (dorsal skin thickness, erythema, scaling)” value was “aggravates the IMQ-induced psoriasis-like phenotype” and the “proportion of IL-17A+ γδ T cells” value was “increases a proportion of IL-17A+ γδ T cells in mouse skin”. Also, the “difference in skin thickness between WT and Camk2g-/- mice” value in assay [5] is reported as “disappeared”.
Turning to `Cc1c(Cl)cccc1S(=O)(=O)Nc1nc(NCCc2ccccc2)nc2c1CN(Cc1ccccc1)CC2` [CaMKII-IN1], the “release of MPO, elastase and PAD4” value in [1] was “inhibits the release of MPO, elastase and PAD4”.
